Laboratory results from patent US20100160286A1, “HETEROARYLCARBAMOYLBENZENE DERIVATIVES FOR THE TREATMENT OF DIABETES” (ASTRAZENECA UK LIMITED AB, priority 2005, published 2010).
pEC50: −log10 of the molar value.

Tests used:
Zucker obese fa/fa rats = assay: Oral Glucose Tolerance Test; assay type: in vivo, rat; details: 10 mg/kg; given orally 120 minutes before oral glucose 2 g/kg; Zucker obese fa/fa rats on high fat diet
Description: (2) Oral Glucose Tolerance Test (OGIT) Oral glucose tolerance tests were done on conscious Zucker obese fa/fa rats (age 12-13 weeks or older) fed a high fat diet (45% kcal fat) for at least two weeks prior to experimentation. The animals were fasted for 2 hours before use for experiments. A test compound or a vehicle was given orally 120 minutes before oral administration of a glucose solution at a dose of 2 g/kg body weight. Blood glucose levels were measured using a Accucheck glucometer from tail bled samples taken at different time points before and after administration of glucose (time course of […]). A time curve of the blood glucose levels was generated and the area-under-the-curve (AUC) for 120 minutes was calculated (the time of glucose administration being time zero). Percent reduction in glucose excursion was determined using the AUC in the vehicle-control group as zero percent reduction.

[1] = target: T1, recombinant human pancreatic GLK (Homo sapiens, UniProt P35557); assay: biochemical
T1 sequence (P35557 1-465): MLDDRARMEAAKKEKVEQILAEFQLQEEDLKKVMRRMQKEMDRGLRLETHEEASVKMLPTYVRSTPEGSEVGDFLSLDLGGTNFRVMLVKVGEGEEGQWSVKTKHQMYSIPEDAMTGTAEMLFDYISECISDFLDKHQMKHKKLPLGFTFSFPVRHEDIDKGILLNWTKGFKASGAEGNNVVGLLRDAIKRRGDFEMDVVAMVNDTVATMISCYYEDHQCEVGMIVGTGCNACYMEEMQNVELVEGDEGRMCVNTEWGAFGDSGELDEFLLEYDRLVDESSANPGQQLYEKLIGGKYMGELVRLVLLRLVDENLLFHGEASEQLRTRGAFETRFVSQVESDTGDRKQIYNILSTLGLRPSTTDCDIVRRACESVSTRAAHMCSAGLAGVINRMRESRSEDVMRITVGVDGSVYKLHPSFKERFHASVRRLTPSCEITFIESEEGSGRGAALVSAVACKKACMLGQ

For `Cn1ccc(NC(=O)c2cc(Oc3ccc(C(=O)N4CCC4)cc3)cc(O[C@H]3CCOC3)c2)n1` [Example 2, 3-{[4-(Azetidin-1-ylcarbonyl)phenyl]oxy}-N-(1-methyl-1H-pyrazol-3-yl)-5-[(3S)-tetrahydrofuran-3-yloxy]benzamide], the “effect in the Oral Glucose Tolerance Test (percent reduction in glucose excursion, AUC vs vehicle control)” value (Zucker obese fa/fa rats) was 42%.

`C#C[C@H](C)Oc1cc(Oc2ccc(C(=O)N3CCC3)cc2)cc(C(=O)Nc2ccn(C)n2)c1` [Example 7, 3-{[4-(Azetidin-1-ylcarbonyl)phenyl]oxy}-5-{[(15)-1-methylprop-2-yn-1-yl]oxy}-N-(1-methyl-1H-pyrazol-3-yl)benzamide] gave a pEC50 [1] of 7.22.
